Data taken from patent publication US20240066027A1 (DOMAIN THERAPEUTICS, priority 2020, published 2024).

Experiments:
[1] = target: T1, human PAR-2 (hPAR-2) receptor expressed in HEK-293 T cells in an endogenous manner (Homo sapiens, UniProt P55085); assay: In vitro human PAR-2 functional antagonist activity using calcium assays (Fluo4AM, FLIPR Tetra); type: cell-based; conditions: HEK-293 T cells stimulated by an EC80 of the 2-Furoyl-LIGRLO-NH2 peptide after 10 min incubation with compound; 20 concentrations, duplicate, two independent experiments
T1 construct: human PAR-2 (hPAR-2) receptor expressed in HEK-293 T cells in an endogenous manner; endogenous in cells; host or cells: HEK-293 T cells
T1 sequence (P55085 26-397): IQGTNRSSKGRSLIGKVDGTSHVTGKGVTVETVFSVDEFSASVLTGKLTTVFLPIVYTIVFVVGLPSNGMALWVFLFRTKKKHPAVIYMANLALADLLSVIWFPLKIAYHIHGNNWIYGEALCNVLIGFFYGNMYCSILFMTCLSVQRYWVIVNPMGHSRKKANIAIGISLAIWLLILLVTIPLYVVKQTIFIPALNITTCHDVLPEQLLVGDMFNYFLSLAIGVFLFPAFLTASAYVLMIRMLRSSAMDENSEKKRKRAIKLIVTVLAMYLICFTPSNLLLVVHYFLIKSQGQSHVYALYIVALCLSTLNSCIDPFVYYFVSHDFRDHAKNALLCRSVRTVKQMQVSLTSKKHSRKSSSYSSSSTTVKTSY
In short: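 Antagonist activity was taken as the decrease in the calcium response to an EC80 of 2-Furoyl-LIGRLO-NH2, measured over 5 min. The agonist was added after a 10 min compound-alone step on the same plate. The HEK-293 T cells express PAR-2 endogenously and were loaded with 1 μM Fluo4AM. Signals were referenced to buffer and EC80-alone controls.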

IC50 [1]	melting point	Structure (SMILES)
> 10 µM	127 to 139 °C	COc1cc(-n2nc(C(C)(C)C)c3nc(C(=O)N4CCN(c5cc(C)c(C(=O)O)c(C)n5)CC4(C)C)ccc32)ccc1Cl [Example 60, 6-(4-(3-(tert-butyl)-1-(4-chloro-3-methoxyphenyl)-1H-pyrazolo[4,3-b]pyridine-5-carbonyl)-3,3-dimethylpiperazin-1-yl)-2,4-dimethylnicotinic acid]
0.02 to 10 µM	207 to 212 °C	Cc1ccc(-c2cn(CC(C)C)c3nc(C(=O)N4CCNC(=O)C4(C)C)ccc23)cc1 [Example 51, 4-[1-isobutyl-3-(p-tolyl)pyrrolo[2,3-b]pyridine-6-carbonyl]-3,3-dimethyl-piperazin-2-one]
> 10 µM	185 to 190 °C	CC(C)Cn1cc(-c2cncnc2)c2ccc(C(=O)N3CCNC(=O)C3(C)C)nc21 [Example 36, 4-(1-isobutyl-3-(pyrimidin-5-yl)-1H-pyrrolo[2,3-b]pyridine-6-carbonyl)-3,3-dimethylpiperazin-2-one]
0.02 to 10 µM	225 to 230 °C	Cc1ccccc1-c1cn(CC(C)C)c2nc(C(=O)N3CCNC(=O)C3(C)C)ccc12 [Example 52, 4-[1-isobutyl-3-(o-tolyl)pyrrolo[2,3-b]pyridine-6-carbonyl]-3,3-dimethyl-piperazin-2-one]
0.02 to 10 µM	> 250 °C	CC(C)Cn1cc(-c2ccc(C(F)(F)F)nc2)c2ccc(C(=O)N3CCNC(=O)C3(C)C)nc21 [Example 43, 4-(1-isobutyl-3-(6-(trifluoromethyl)pyridin-3-yl)-1H-pyrrolo[2,3-b]pyridine-6-carbonyl)-3,3-dimethylpiperazin-2-one]
0.02 to 10 µM	226 to 229 °C	CC(C)Cn1cc(C2CCCCC2)c2ccc(C(=O)N3CCNC(=O)C3(C)C)nc21 [Example 48, 4-(3-cyclohexyl-1-isobutyl-1H-pyrrolo[2,3-b]pyridine-6-carbonyl)-3,3-dimethylpiperazin-2-one]
0.02 to 10 µM	165 to 170 °C	CC(C)Cn1cc(-c2cc(F)cc(F)c2)c2ccc(C(=O)N3CCNC(=O)C3(C)C)nc21 [Example 108, 4-(3-(3,5-difluorophenyl)-1-isobutyl-1H-pyrrolo[2,3-b]pyridine-6-carbonyl)-3,3-dimethylpiperazin-2-one]
0.02 to 10 µM	233 to 237 °C	CC(C)Cn1cc(N2CCCCC2)c2ccc(C(=O)N3CCNC(=O)C3(C)C)nc21 [Example 82, 4-(1-isobutyl-3-(piperidin-1-yl)-1H-pyrrolo[2,3-b]pyridine-6-carbonyl)-3,3-dimethylpiperazin-2-one]
> 10 µM	198 to 200 °C	O=C(c1cc2c(cn1)c(-c1ccc(Cl)c(F)c1)nn2CC(F)(F)F)N1CC2CCC(C1)O2 [Example 90, (8-oxa-3-azabicyclo[3.2.1]octan-3-yl)(3-(4-chloro-3-fluorophenyl)-1-(2,2,2-trifluoroethyl)-1H-pyrazolo[4,3-c]pyridin-6-yl)methanone]
> 10 µM	225 to 230 °C	CC(C)Cn1cc(C2=CCOCC2)c2ccc(C(=O)N3CCNC(=O)C3(C)C)nc21 [Example 45, 4-(3-(3,6-dihydro-2H-pyran-4-yl)-1-isobutyl-1H-pyrrolo[2,3-b]pyridine-6-carbonyl)-3,3-dimethylpiperazin-2-one]
> 10 µM	> 250 °C	CC(C)Cn1cc(-c2cnn(C)c2)c2ccc(C(=O)N3CCNC(=O)C3(C)C)nc21 [Example 44, 4-(1-isobutyl-3-(1-methyl-1H-pyrazol-4-yl)-1H-pyrrolo[2,3-b]pyridine-6-carbonyl)-3,3-dimethylpiperazin-2-one]
> 10 µM	200 to 210 °C	CC(C)Cn1cc(-c2ccncc2)c2ccc(C(=O)N3CCNC(=O)C3(C)C)nc21 [Example 37, 4-(1-isobutyl-3-(pyridin-4-yl)-1H-pyrrolo[2,3-b]pyridine-6-carbonyl)-3,3-dimethylpiperazin-2-one]
0.02 to 10 µM	202 to 204 °C	CC(C)Cn1cc(-c2cccc(OC(F)(F)F)c2)c2ccc(C(=O)N3CCNC(=O)C3(C)C)nc21 [Example 57, 4-[1-isobutyl-3-[3-(trifluoromethoxy)phenyl]pyrrolo[2,3-b]pyridine-6-carbonyl]-3,3-dimethyl-piperazin-2-one]
> 10 µM	84 to 88 °C	O=C(c1cc2c(cn1)c(-c1ccc(Cl)c(F)c1)nn2CC(F)(F)F)N1CCCOCC1 [Example 89, (3-(4-chloro-3-fluorophenyl)-1-(2,2,2-trifluoroethyl)-1H-pyrazolo[4,3-c]pyridin-6-yl)(1,4-oxazepan-4-yl)methanone]
0.02 to 10 µM	205 to 210 °C	CC(C)Cn1cc(-c2ccc(N(C)C)nc2)c2ccc(C(=O)N3CCNC(=O)C3(C)C)nc21 [Example 109, 4-(3-(6-(dimethylamino)pyridin-3-yl)-1-isobutyl-1H-pyrrolo[2,3-b]pyridine-6-carbonyl)-3,3-dimethylpiperazin-2-one]
0.02 to 10 µM	175 to 178 °C	CC(C)Cn1cc(-c2ccccc2)c2ccc(C(=O)N3CCNC(=O)C3(C)C)nc21 [Example 49, 4-(1-isobutyl-3-phenyl-pyrrolo[2,3-b]pyridine-6-carbonyl)-3,3-dimethyl-piperazin-2-one]
> 10 µM	189 to 192 °C	COc1ccc(-n2nc(CC(C)C)c3nc(C(=O)N4CCNC(=O)C4(C)C)ccc32)cn1 [Example 92, 4-(3-isobutyl-1-(6-methoxypyridin-3-yl)-1H-pyrazolo[4,3-b]pyridine-5-carbonyl)-3,3-dimethylpiperazin-2-one]
0.02 to 10 µM	–	CC1(C)C(=O)NCCN1C(=O)c1ccc2c(-c3ccc(Cl)c(F)c3)cn(CCn3cncn3)c2n1 [Example 40, 4-(1-(2-(1H-1,2,4-triazol-1-yl)ethyl)-3-(4-chloro-3-fluorophenyl)-1H-pyrrolo[2,3-b]pyridine-6-carbonyl)-3,3-dimethylpiperazin-2-one]
0.02 to 10 µM	–	CC(C)Cn1cc(-c2ccc(C#N)cc2)c2ccc(C(=O)N3CCNC(=O)C3(C)C)nc21 [Example 106, 4-(6-(2,2-dimethyl-3-oxopiperazine-1-carbonyl)-1-isobutyl-1H-pyrrolo[2,3-b]pyridin-3-yl)benzonitrile]
0.02 to 10 µM	–	Cc1cc(N(C)C2CCN(C(=O)c3ccc4c(-c5ccc(Cl)c(F)c5)cn(C(C)(C)C)c4n3)CC2)nc(C)c1C(=O)O [Example 147, 6-((1-(1-(tert-butyl)-3-(4-chloro-3-fluorophenyl)-1H-pyrrolo[2,3-b]pyridine-6-carbonyl)piperidin-4-yl)(methyl)amino)-2,4-dimethyinicotinic acid]
> 10 µM	–	CCOC(=O)c1ccc(N2CCN(C(=O)c3ccn4c(-c5ccc(Cl)cc5)nc(C(C)(C)C)c4n3)C(C)(C)C2)nc1 [Example 216, ethyl 6-(4-(8-(tert-butyl)-6-(4-chlorophenyl)imidazo[1,5-a]pyrimidine-2-carbonyl)-3,3-dimethylpiperazin-1-yl)nicotinate]

Structure (SMILES)	IC50 [1]	melting point
CC(C)Cn1cc(C2=CCNCC2)c2ccc(C(=O)N3CCNC(=O)C3(C)C)nc21 [Example 47, 4-(3-(1,2,3,6-tetrahydropyridin-4-yl)-1-isobutyl-1H-pyrrolo[2,3-b]pyridine-6-carbonyl)-3,3-dimethylpiperazin-2-one]	> 10 µM	140 to 145 °C
